Reference: patent US20190241569A1, “3-(ARYL OR HETEROARYL) METHYLENEINDOLIN-2-ONE DERIVATIVES AS INHIBITORS OF CANCER STEM CELL PATHWAY KINASES FOR THE TREATMENT OF CANCER” (Boston Biomedical, Inc., priority 2013, published 2019)
Where a name gives a salt, the structure may show the parent alone. Read-outs that look alike come from different tables or passages of the source.

Experiments:
FaDu = assay: Bulk cancer cells, Cell Titer-Glo 72 hours (Test Example 2); assay type: cell-based; conditions: Homo sapiens
Description: (§1) Tubes of 3× drug (60 uM in 500 uL complete media) were prepared from 5 mM stock solutions in DMSO. […] To treat cells, 50 uL of drug from the dilution plate was removed and added to the cell plates. […] Cells were harvested 72 hours after drug addition using Cell Titer-Glo (Promega) and luminescence measured on a plate reader.

FaDu CSC = assay: Cancer stem cells, Cell Titer-Glo 72 hours (Test Example 3); assay type: cell-based; conditions: Homo sapiens, FaDu, 72 h
p-AMPK Thr172 = assay: Kinase inhibition, Western blot in HeLa cells (Test Example 5); assay type: cell-based; conditions: Homo sapiens, 6 hours, DMSO = 100, read-out: p-AMPK Relative Intensity (%)
Description: (§2) HeLa cells were treated with 5 uM of the indicated compound for 6 hours. Following compound incubation, cells were washed twice with ice-cold PBS and lysed in lysis buffer (50 mM HEPES, pH 7.5, 1% Nonidet P40, 150 mM NaCl, 1 mM EDTA, 1× protease inhibitor cocktail (Promega)). 30 micrograms of soluble protein was separated by SDS-PAGE and transferred to PVDF membranes. Primary antibodies against p-AMPK Thr172, p-RPS6 Ser235/236, p-RPS6 Ser240/244, and Tubulin (Cell Signaling Technology) were used. The antigen-antibody complexes were visualized by enhanced chemiluminescence (BioRad). The results are shown below in Tables 17A-17E.

p-RPS6 Ser235/236 = assay: as above; assay type: cell-based; conditions: Homo sapiens, 6 hours, DMSO = 100, read-out: p-RPS6 Ser235/236 Relative Intensity (%)
Description: as §2

p-RPS6 Ser240/244 = assay: as above; assay type: cell-based; conditions: Homo sapiens, 6 hours, DMSO = 100, read-out: p-RPS6 Ser240/244 Relative Intensity (%)
Description: as §2

A549 = assay: Bulk cancer cells, Cell Titer-Glo 72 hours (Test Example 2); assay type: cell-based; conditions: Homo sapiens
Description: as §1

ACHN = assay: as above; assay type: cell-based; conditions: Homo sapiens, ACHN, 72 h
Description: as §1

A549 CSC = assay: Cancer stem cells, Cell Titer-Glo 72 hours (Test Example 3); assay type: cell-based; conditions: Homo sapiens
human RIOK2 protein = molecular target: T1, human RIOK2 protein (Homo sapiens, UniProt Q9BVS4); assay: RIOK2 autophosphorylation ELISA (Test Example 4); assay type: biochemical; conditions: for inhibition at 1 µM: read-out: Inhibitory activity at 1 μM (%); for inhibition at 10 µM: read-out: Inhibitory activity at 10 μM (%)
T1 construct: glutathione S-transferase is fused to N-terminal of a full-length human RIOK2 protein; GST (glutathione S-transferase) (N); purchased CarnaBio, Inc; host or cells: baculovirus-Sf21 cell expression system
T1 sequence (Q9BVS4 whole entry, the tested form may be a part): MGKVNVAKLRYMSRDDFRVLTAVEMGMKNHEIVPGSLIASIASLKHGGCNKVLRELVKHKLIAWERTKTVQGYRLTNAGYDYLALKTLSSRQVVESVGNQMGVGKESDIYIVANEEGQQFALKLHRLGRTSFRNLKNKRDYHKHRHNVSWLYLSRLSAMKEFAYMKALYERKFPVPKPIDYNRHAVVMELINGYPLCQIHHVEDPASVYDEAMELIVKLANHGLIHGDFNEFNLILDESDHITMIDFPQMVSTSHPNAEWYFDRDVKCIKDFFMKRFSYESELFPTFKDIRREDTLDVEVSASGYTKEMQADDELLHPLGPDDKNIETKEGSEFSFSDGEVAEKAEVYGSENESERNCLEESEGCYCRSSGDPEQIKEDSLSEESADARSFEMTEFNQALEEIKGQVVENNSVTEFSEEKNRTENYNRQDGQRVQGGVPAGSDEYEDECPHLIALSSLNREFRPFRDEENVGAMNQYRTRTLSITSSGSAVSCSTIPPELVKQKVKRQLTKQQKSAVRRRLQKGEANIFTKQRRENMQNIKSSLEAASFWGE
Description: A protein in which glutathione S-transferase is fused to N-terminal of a full-length human RIOK2 protein was used as a recombinant human RIOK2 protein. The protein was prepared using a baculovirus-Sf21 cell expression system from CarnaBio, Inc. A kinase reaction solution was prepared by mixing 25 μg/mL of the recombinant human RIOK2 protein and 100 μM of ATP in 20 μl of kinase reaction buffer (50 mM Tris-HCl, 10 mM MgCl2, 10 mM MnCl2, 1 mM DTT, 0.01% Brij, 1× PhosSTOP (manufactured by Roche Applied Science)), and was incubated at a temperature of 30° C. for 1 hour. After adding 30 μl of 40 mM EDTA solution to this kinase reaction solution, the kinase reaction solution was transferred to a MaxiSorp 96 well plate (manufactured by Nunc). Thereafter, phosphorylated human RIOK2 protein was allowed to adsorb onto the wells by leaving the plate in a refrigerator overnight.
The following day, the supernatant was removed, and the wells were washed three times with ELISA buffer (20 mM Tris-HCl, 150 mM NaCl, 0.2% Tween-20, 0.1% BSA). Thereafter, 100 μl of Blocking-One P (product name; manufactured by Nacalai Tesque, Inc.) was applied to the wells, and a blocking treatment was performed for 1 hour at room temperature. […] After further washing the wells, a secondary antibody, anti-rabbit IgG conjugated with horseradish peroxidase (manufactured by Jackson ImmunoResearch; 1/4000 ELISA buffer-diluted solution), was applied to the wells, and incubation was performed for 30 minutes at room temperature. After washing the wells once again, 50 μl of tetramethyl benzidine (TMB) aqueous solution (manufactured by Nacalai Tesque, Inc.) was applied to the wells, and a coloring reaction was performed for 30 minutes at room temperature. Thereafter, the coloring reaction was stopped by adding 50 μl of 2M H2SO4 to the wells. An absorptiometric level of 450 nm was measured in each well using ARVO SX (manufactured by Wallac).

ACHN CSC = assay: Cancer stem cells, Cell Titer-Glo 72 hours (Test Example 3); assay type: cell-based; conditions: Homo sapiens, ACHN, 72 h

SMILES | IC50 (FaDu) [µM] | IC50 (FaDu CSC) [µM] | inhibition at 1 µM (human RIOK2 protein) [%] | inhibition at 10 µM (human RIOK2 protein) [%] | also measured
CCN(CC)CCNC(=O)c1c(C)[nH]c(/C=C2\C(=O)Nc3ccc(-c4ccc(-c5cccs5)s4)cc32)c1C [Example 27] | 2.51 | 0.83 | – | – | activity at 5 µM (p-AMPK Thr172; 5 uM): 21%; activity at 5 µM (p-RPS6 Ser235/236; 5 uM): 5%; activity at 5 µM (p-RPS6 Ser240/244; 5 uM): 41%
CCN(CC)CCNC(=O)c1c(C)[nH]c(/C=C2\C(=O)Nc3ccc(-c4cnn(-c5ccccc5)c4)cc32)c1C [Example 4] | 6.25 | 0.6 | 45 | 94 | IC50 (A549): 5.35 µM; IC50 (ACHN): 2.28 µM; IC50 (A549 CSC): 4.83 µM
Cc1[nH]c(/C=C2\C(=O)Nc3ccc(-c4nnc(-c5ccccc5)s4)cc32)c(C)c1C(=O)N1CCN(C)CC1 [Example 2] | 14.1 | 0.23 | – | 19 | IC50 (A549): 48.9 µM
Cc1[nH]c(/C=C2\C(=O)Nc3cc(-c4csc(-c5ccccc5)n4)ccc32)c(C)c1C(=O)N1CCOCC1 [Example 36] | – | 41.9 | – | – | activity at 5 µM (p-AMPK Thr172; 5 uM): 118%; activity at 5 µM (p-RPS6 Ser235/236; 5 uM): 4%; activity at 5 µM (p-RPS6 Ser240/244; 5 uM): 44%
CCN(CC)CCNC(=O)c1c(C)[nH]c(/C=C2\C(=O)Nc3ccc(-c4ncc(-c5ccccc5)o4)cc32)c1C [Example 19] | 7.35 | 27.6 | 32 | 56 | IC50 (A549 CSC): 0.35 µM
CCN(CC)CCNC(=O)c1c(C)[nH]c(/C=C2\C(=O)Nc3ccc(-c4ccc(-c5ccccc5)s4)cc32)c1C [Example 1, (Z)-N-(2-(diethylamino)ethyl)-2,4-dimethyl-5-((2-oxo-5-(5-phenylthiophen-2-yl)indolin-3-ylidene)methyl)-1H-pyrrole-3-carboxamide] | 4.74 | 1.2 | – | 14 | IC50 (ACHN): 7.6 µM
COc1ncccc1-c1cccc2c1/C(=C/c1[nH]c(C)cc1C)C(=O)N2 [Example 271] | 22.6 | – | – | – | activity at 5 µM (p-AMPK Thr172; 5 uM compound, Western blot): 105%; activity at 5 µM (p-RPS6 Ser235/236; 5 uM compound, Western blot): 67%; activity at 5 µM (p-RPS6 Ser240/244; 5 uM compound, Western blot): 67%
CCN(CC)CCNC(=O)c1c(C)[nH]c(/C=C2\C(=O)Nc3ccc(-c4cnn(-c5ccc(S(N)(=O)=O)cc5)c4)cc32)c1C [Example 74] | – | – | 26 | 71 | –
Cc1[nH]c(/C=C2\C(=O)Nc3ccc(-c4cnn(-c5ccccc5)c4)cc32)c(C)c1C(=O)NC1(CN2CCCCC2)CC1 [Example 97] | – | – | 6 | 107 | –
CCN(CC)CCNC(=O)c1c(C)[nH]c(/C=C2\C(=O)Nc3ccc(-c4cnn(-c5cnccn5)c4)cc32)c1C [Example 68] | – | – | 47 | 95 | –
Cc1[nH]c(/C=C2\C(=O)Nc3ccc(-c4ccc(-c5ccccc5)s4)cc32)c(C)c1C(=O)N1CCN(C)CC1 [Example 3] | 25.4 | 1.16 | – | 65 | –
Cc1[nH]c(/C=C2\C(=O)Nc3ccc(-c4cnn(-c5ccccc5)c4)cc32)c(C)c1C(=O)NC1CNCC(c2ccccc2)C1 (centres unmarked) [Example 96] | – | – | -13 | 69 | –
Cc1[nH]c(/C=C2\C(=O)Nc3cc(-c4ccc(-c5ccccc5)s4)ccc32)c(C)c1C(=O)N1CCN(C)CC1 [Example 29] | – | – | – | – | activity at 5 µM (p-AMPK Thr172; 5 uM): 108%; activity at 5 µM (p-RPS6 Ser235/236; 5 uM): 36%; activity at 5 µM (p-RPS6 Ser240/244; 5 uM): 68%
CCN(CC)CCNC(=O)c1c(C)[nH]c(/C=C2\C(=O)Nc3ccc(-c4cnn(-c5cscn5)c4)cc32)c1C [Example 72] | – | – | 41 | 99 | –
Cc1[nH]c(/C=C2\C(=O)Nc3ccc(-c4cnn(-c5ccccc5)c4)cc32)c(C)c1C(=O)N[C@H]1CCCNC1 [Example 88, (S,Z)-2,4-dimethyl-5-((2-oxo-5-(1-phenyl-1H-pyrazol-4-yl)indolin-3-ylidene)methyl)-N-(piperidin-3-yl)-1H-pyrrole-3-carboxamide hydrochloride] | – | – | 1.4 | 122 | –
CCN(CC)CCNC(=O)c1c(C)[nH]c(/C=C2\C(=O)Nc3ccc(-c4ccnn4-c4ccccc4)cc32)c1C [Example 22] | 3.01 | 3.46 | 55 | 100 | IC50 (A549): 2.94 µM; IC50 (ACHN): 6.57 µM; IC50 (A549 CSC): 5.54 µM; IC50 (ACHN CSC): 1.17 µM
Cc1[nH]c(/C=C2\C(=O)Nc3ccc(-c4cnn(-c5ccccc5)c4)cc32)c(C)c1C(=O)N[C@@H]1CCCNC1 [Example 89] | – | – | 22 | 130 | –
CCN(CC)CCNC(=O)c1c(C)[nH]c(/C=C2\C(=O)Nc3ccc(-c4cnn(C5CCOCC5)c4)cc32)c1C [Example 47] | 4.22 | 2.57 | 32 | 68 | IC50 (A549): 16 µM; IC50 (ACHN): 10.4 µM
CCN(CC)CCNC(=O)c1c(C)[nH]c(/C=C2\C(=O)Nc3ccc(-c4ccnn4-c4cccc(C)c4)cc32)c1C [Example 61] | – | – | 29 | 137 | –
CCN(CC)CCNC(=O)c1c(C)[nH]c(/C=C2\C(=O)Nc3ccc(-c4cnn(-c5ccccn5)c4)cc32)c1C [Example 32] | 0.51 | 0.05 | 36 | 86 | IC50 (A549): 1.72 µM; IC50 (ACHN): 1.24 µM; IC50 (A549 CSC): 2.53 µM; IC50 (ACHN CSC): 0.13 µM
CCN(CC)CCNC(=O)c1c(C)[nH]c(/C=C2\C(=O)Nc3ccc(-c4cnn(-c5ccncn5)c4)cc32)c1C [Example 69] | – | – | 40 | 109 | –
CCN(CC)CCNC(=O)c1c(C)[nH]c(/C=C2\C(=O)Nc3cc(-c4ccc(-c5ccccc5)s4)ccc32)c1C [Example 15] | – | 30.5 | – | – | activity at 5 µM (p-AMPK Thr172; 5 uM): 150%; activity at 5 µM (p-RPS6 Ser235/236; 5 uM): 5%; activity at 5 µM (p-RPS6 Ser240/244; 5 uM): 56%
